The subject of test [1] is HCV genotype 1a subgenomic replicon. Briefly: HCV replicon assay, genotype 1a subgenomic replicon (luciferase). It counts as cell-based. To be noted: Hepatitis C virus; genotype 1a replicon stable cell line, luciferase activity measured 48 hours later; read-out: Replicon 1A pEC50 (converted). Here is the method: (§1) Protocol for Testing and Data Analysis of Compounds in the HCV Replicon Assay
(§2) Compounds were assayed for activity against HCV using the genotype 1a and 1b subgenomic replicon model systems. Stable cell lines bearing the genotype 1a and 1b replicons were used for screening of compounds. Both replicons are bicistronic and contain the firefly luciferase gene. The ET cell line is stably transfected with RNA transcripts harboring a I389luc-ubi-neo/NS3-3′/ET replicon with firefly luciferase-ubiquitin-neomycin phosphotransferase fusion protein and EMCV-IRES driven NS3-5B polyprotein containing the cell culture adaptive mutations (E1202G; T1280I; K1846T) (Krieger at al, 2001 and unpublished). The genotype 1a replicon is a stable cell line licensed from Apath LLC, modified to contain the firefly luciferase gene. The cells were grown in DMEM, supplemented with 10% fetal calf serum, 2 mM Glutamine, Penicillin (100 IU/mL)/Streptomycin (100 μg/mL), 1× nonessential amino acids, and 250-500 μg/mL G418 (“Geneticin”). They were all available through Life Technologies (Bethesda, Md.). The cells were plated at 5×10^3 cells/well in 384 well plates containing compounds. The final concentration of compounds ranged between 0.03 pM to 50 μm and the final DMSO concentration of 0.5-1%.
(§3) Luciferase activity was measured 48 hours later by adding a Steady glo reagent (Promega, Madison, Wis.). Percent inhibition of replication data was plotted relative to no compound control. Under the same condition, cytotoxicity of the compounds was determined using cell titer glo (Promega, Madison, Ws). EC50s were determined from an 11 point dose response curve using 3-4-fold serial dilution for each compound, which spans a concentration range >1000 fold. The level of inhibition for each compound was determined with Activity Base or with BioAssay plus the Excel XC50 module. Percent inhibition was determined with the following equation where the cross-talk corrected value is the value from the test well, the compound positive control mean is the average value of the wells with no compound present, and the DMSO negative control mean is the average value of the wells with DMSO but no cells present.
(§4) [formula] These normalized values are exported to EC50 where they are plotted against the molar compound concentrations using the standard four parameter logistic equation: […]

Test [2] relates to HCV genotype 1b subgenomic replicon. Nature of the test: HCV replicon assay, genotype 1b subgenomic replicon (ET cell line, luciferase). To be noted: Hepatitis C virus; genotype 1b replicon ET cell line, luciferase activity measured 48 hours later; read-out: Replicon 1B pEC50 (converted). It counts as cell-based. On the procedure: as §1, §2, §3, §4

For `COC(=O)N[C@H](C(=O)N1CC2(CNC2)CC1c1ncc(-c2ccc(-c3ccc(-c4cnc([C@@H]5CCCN5C(=O)[C@@H](NC(=O)OC)C(C)C)[nH]4)cc3)cc2)[nH]1)C(C)C` (stereo partly drawn) [Example 24, methyl [(1S)-2-methyl-1-({(2S)-2-[4-(4′-{2-[6-((2S)-3-methyl-2-{[(methyloxy)carbonyl]amino}butanoyl)-2,6-diazaspiro[3.4]oct-7-yl]-1H-imidazol-4-yl}-4-biphenylyl)-1H-imidazol-2-yl]-1-pyrrolidinyl}carbonyl)propyl]carbamate], the results for the EC50 in test [1] and in test [2] were 3.16 nM and 0.126 nM, respectively.

For `COC(=O)N[C@H](C(=O)N1CC2(CC1c1ncc(-c3ccc(-c4ccc(-c5cnc([C@@H]6CCCN6C(=O)[C@@H](NC(=O)OC)C(C)C)[nH]5)cc4)cc3)[nH]1)CN(C(C)=O)C2)C(C)C` (stereo partly drawn) [Example 25, methyl [(1S)-1-({(2S)-2-[4-(4′-{2-[2-acetyl-6-((2S)-3-methyl-2-{[(methyloxy)carbonyl]amino}butanoyl)-2,6-diazaspiro[3.4]oct-7-yl]-1H-imidazol-4-yl}-4-biphenylyl)-1H-imidazol-2-yl]-1-pyrrolidinyl}carbonyl)-2-methylpropyl]carbamate], the EC50 in test [1] is 1.26 nM; in test [2], 0.158 nM.

In the case of `COC(=O)N[C@H](C(=O)N1CC2(CC1c1ncc(-c3ccc(-c4ccc(-c5cnc([C@@H]6CCCN6C(=O)[C@@H](NC(=O)OC)C(C)C)[nH]5)cc4)cc3)[nH]1)CN(C(=O)OC)C2)C(C)C` (stereo partly drawn) [Example 26, methyl 6-{N-[(methyloxy)carbonyl]-L-valyl}-7-(4-{4′-[2-((2S)-{N-[(methyloxy)carbonyl]-L-valyl}-2-pyrrolidinyl)-1H-imidazol-4-yl]-4-biphenylyl}-1H-imidazol-2-yl)-2,6-diazaspiro[3.4]octane-2-carboxylate], the EC50 in test [1] is 2 nM; in test [2] it was 0.0501 nM.

Turning to `CNC(=O)N1CC2(CC(c3ncc(-c4ccc(-c5ccc(-c6cnc([C@@H]7CCCN7C(=O)[C@@H](NC(=O)OC)C(C)C)[nH]6)cc5)cc4)[nH]3)N(C(=O)[C@@H](NC(=O)OC)C(C)C)C2)C1` (stereo partly drawn) [Example 27, methyl [(1S)-2-methyl-1-({(2S)-2-[4-(4′-{2-[2-[(methylamino)carbonyl]-6-((2S)-3-methyl-2-{[(methyloxy)carbonyl]amino}butanoyl)-2,6-diazaspiro[3.4]oct-7-yl]-1H-imidazol-4-yl}-4-biphenylyl)-1H-imidazol-2-yl]-1-pyrrolidinyl}carbonyl)propyl]carbamate], the figures for the EC50 in test [1] and in test [2] were 6.31 nM and 0.251 nM, respectively.

For `COC(=O)N[C@H](C(=O)N1CC2(CC1c1ncc(-c3ccc(-c4ccc(-c5cnc([C@@H]6CCCN6C(=O)[C@@H](NC(=O)OC)C(C)C)[nH]5)cc4)cc3)[nH]1)CN(S(C)(=O)=O)C2)C(C)C` (stereo partly drawn) [Example 28, methyl [(1S)-2-methyl-1-({(2S)-2-[4-(4′-{2-[6-((2S)-3-methyl-2-{[(methyloxy)carbonyl]amino}butanoyl)-2-(methylsulfonyl)-2,6-diazaspiro[3.4]oct-7-yl]-1H-imidazol-4-yl}-4-biphenylyl)-1H-imidazol-2-yl]-1-pyrrolidinyl}carbonyl)propyl]carbamate], the values for the EC50 in test [1] and in test [2] were 1.58 nM and 0.0501 nM, respectively.

Consider `COC(=O)N[C@H](C(=O)N1CCC[C@H]1c1ncc(-c2ccc(-c3ccc(-c4cnc([C@@H]5CC6(CN5C(=O)[C@@H](NC(=O)OC)C(C)C)CC(F)(F)C6)[nH]4)cc3)cc2)[nH]1)C(C)C` [Example 29, methyl [(1S)-1-({(2S)-2-[4-(4′-{2-[(7S)-2,2-difluoro-6-((2S)-3-methyl-2-{[(methyloxy)carbonyl]amino}butanoyl)-6-azaspiro[3.4]oct-7-yl]-1H-imidazol-4-yl}-4-biphenylyl)-1H-imidazol-2-yl]-1-pyrrolidinyl}carbonyl)-2-methylpropyl]carbamate], for which the EC50 was 0.1 nM in test [1] and 0.00316 nM in test [2].

Regarding `COC(=O)N[C@H](C(=O)N1CCC[C@H]1c1ncc(-c2ccc(-c3ccc(-c4cnc(C5CCC6(CCOCC6)N5C(=O)[C@@H](NC(=O)OC)C(C)C)[nH]4)cc3)cc2)[nH]1)C(C)C` (stereo partly drawn) [Example 30, methyl [(1S)-2-methyl-1-({(2S)-2-[4-(4′-{2-[1-((2S)-3-methyl-2-{[(methyloxy)carbonyl]amino}butanoyl)-8-oxa-1-azaspiro[4.5]dec-2-yl]-1H-imidazol-4-yl}-4-biphenylyl)-1H-imidazol-2-yl]-1-pyrrolidinyl}carbonyl)propyl]carbamate], the values for the EC50 in test [1] and in test [2] were 1.58 nM and 0.0631 nM, respectively.

As to `COC(=O)N[C@H](C(=O)N1CCC[C@H]1c1ncc(-c2ccc(-c3ccc(-c4cnc(C5CCC6(CCOCC6)N5C(C)=O)[nH]4)cc3)cc2)[nH]1)C(C)C` (stereo partly drawn) [Example 31, methyl ((1S)-1-{[(2S)-2-(4-{4′-[2-(1-acetyl-8-oxa-1-azaspiro[4.5]dec-2-yl)-1H-imidazol-4-yl]-4-biphenylyl}-1H-imidazol-2-yl)-1-pyrrolidinyl}carbonyl]-2-methylpropyl)carbamate], the EC50 was 0.316 nM in test [1] and 0.0126 nM in test [2].

Take `COC(=O)N[C@H](C(=O)N1CCC[C@H]1c1ncc(-c2ccc(-c3ccc(-c4c[nH]c(C5CCC6(CCC(F)(F)CC6)N5C(=O)[C@@H](NC(=O)OC)C(C)C)n4)cc3)cc2)[nH]1)C(C)C` (stereo partly drawn) [Example 32, methyl [(1S)-1-({(2S)-2-[4-(4′-{2-[8,8-difluoro-1-((2S)-3-methyl-2-{[(methyloxy)carbonyl]amino}butanoyl)-1-azaspiro[4.5]dec-2-yl]-1H-imidazol-4-yl}-4-biphenylyl)-1H-imidazol-2-yl]-1-pyrrolidinyl}carbonyl)-2-methylpropyl]carbamate]: the EC50 in test [1] was 1.58 nM; in test [2], 0.0158 nM.

`CC[C@H](NC(=O)OC)C(=O)N1C(c2nc(-c3ccc(-c4ccc(-c5cnc([C@@H]6CCCN6C(=O)[C@@H](NC(=O)OC)C(C)C)[nH]5)cc4)cc3)c[nH]2)CCC12CCC(F)(F)CC2` (stereo partly drawn) [Example 33, methyl [(1S)-1-({8,8-difluoro-2-[4-(4′-{2-[(2S)-1-((2S)-3-methyl-2-{[(methyloxy)carbonyl]amino}butanoyl)-2-pyrrolidinyl]-1H-imidazol-4-yl}-4-biphenylyl)-1H-imidazol-2-yl]-1-azaspiro[4.5]dec-1-yl}carbonyl)propyl]carbamate]: the EC50 in test [1] is 1 nM; in test [2], 0.0158 nM.

With `COC(=O)N[C@@H](C)C(=O)N1C(c2nc(-c3ccc(-c4ccc(-c5cnc([C@@H]6CCCN6C(=O)[C@@H](NC(=O)OC)C(C)C)[nH]5)cc4)cc3)c[nH]2)CCC12CCC(F)(F)CC2` (stereo partly drawn) [Example 34, methyl ((1S)-2-{8,8-difluoro-2-[4-(4′-{2-[(2S)-1-((2S)-3-methyl-2-{[(methyloxy)carbonyl]amino}butanoyl)-2-pyrrolidinyl]-1H-imidazol-4-yl}-4-biphenylyl)-1H-imidazol-2-yl]-1-azaspiro[4.5]dec-1-yl}-1-methyl-2-oxoethyl)carbamate], the EC50 in test [1] was 0.631 nM; in test [2] it was 0.01 nM.

On to `COC(=O)N[C@@H](CC(C)C)C(=O)N1C(c2nc(-c3ccc(-c4ccc(-c5cnc([C@@H]6CCCN6C(=O)[C@@H](NC(=O)OC)C(C)C)[nH]5)cc4)cc3)c[nH]2)CCC12CCC(F)(F)CC2` (stereo partly drawn) [Example 35, methyl [(1S)-1-({8,8-difluoro-2-[4-(4′-{2-[(2S)-1-((2S)-3-methyl-2-{[(methyloxy)carbonyl]amino}butanoyl)-2-pyrrolidinyl]-1H-imidazol-4-yl}-4-biphenylyl)-1H-imidazol-2-yl]-1-azaspiro[4.5]dec-1-yl}carbonyl)-3-methylbutyl]carbamate], for which the EC50 in test [1] was 2 nM; in test [2], 0.0126 nM.

For the compound `COC(=O)N[C@H](C(=O)N1CCC[C@H]1c1ncc(-c2ccc(-c3ccc(-c4c[nH]c(C5CCC6(CCC(F)(F)CC6)N5C(C)=O)n4)cc3)cc2)[nH]1)C(C)C` (stereo partly drawn) [Example 36, methyl ((1S)-1-{[(2S)-2-(4-{4′-[2-(1-acetyl-8,8-difluoro-1-azaspiro[4.5]dec-2-yl)-1H-imidazol-4-yl]-4-biphenylyl}-1H-imidazol-2-yl)-1-pyrrolidinyl]carbonyl}-2-methylpropyl)carbamate], the EC50 in test [1] was 25.1 nM; in test [2], 0.1 nM.

The values above are taken from US9814699B2, “Chemical compounds” (Janssen Pharmaceuticals, Inc., priority 2009, dated 2017).
